Laboratory results: article PMC11167047 (Cell Death Discovery, 2024)

Columns and labels:
Experiment in all cases: kinome screen (33PanQinase)
Format in all cases: biochemical
[1] = biological target: T1, S6K (Homo sapiens, UniProt P23443)
T1 construct: purchased Reaction Biology Europe GmbH (formerly ProQinase)
Description: (§1) The Kinome Screening was performed by Reaction Biology Europe GmbH (http://reactionbiology.com; Freiburg i. Br., Germany).

[2] = biological target: T2, SGK3 (Homo sapiens, UniProt Q96BR1)
T2 construct: purchased Reaction Biology Europe GmbH (formerly ProQinase)
T2 sequence (Q96BR1 1-496): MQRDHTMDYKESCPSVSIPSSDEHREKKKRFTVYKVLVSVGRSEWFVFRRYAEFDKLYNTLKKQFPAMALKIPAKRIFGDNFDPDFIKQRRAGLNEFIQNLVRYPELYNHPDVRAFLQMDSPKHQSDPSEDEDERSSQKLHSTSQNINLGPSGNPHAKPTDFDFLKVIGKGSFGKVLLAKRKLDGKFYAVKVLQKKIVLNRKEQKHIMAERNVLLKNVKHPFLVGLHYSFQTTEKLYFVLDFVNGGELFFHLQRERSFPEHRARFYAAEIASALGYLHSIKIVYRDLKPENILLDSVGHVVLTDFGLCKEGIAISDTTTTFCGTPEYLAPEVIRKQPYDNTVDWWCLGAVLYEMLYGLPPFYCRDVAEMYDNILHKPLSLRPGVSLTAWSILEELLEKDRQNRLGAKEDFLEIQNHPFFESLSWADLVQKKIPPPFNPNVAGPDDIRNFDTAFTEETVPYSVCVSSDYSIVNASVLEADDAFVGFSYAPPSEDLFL
Description: as §1

[3] = biological target: T3, DYRK3 (Homo sapiens, UniProt O43781)
T3 construct: purchased Reaction Biology Europe GmbH (formerly ProQinase)
T3 sequence (O43781 1-588): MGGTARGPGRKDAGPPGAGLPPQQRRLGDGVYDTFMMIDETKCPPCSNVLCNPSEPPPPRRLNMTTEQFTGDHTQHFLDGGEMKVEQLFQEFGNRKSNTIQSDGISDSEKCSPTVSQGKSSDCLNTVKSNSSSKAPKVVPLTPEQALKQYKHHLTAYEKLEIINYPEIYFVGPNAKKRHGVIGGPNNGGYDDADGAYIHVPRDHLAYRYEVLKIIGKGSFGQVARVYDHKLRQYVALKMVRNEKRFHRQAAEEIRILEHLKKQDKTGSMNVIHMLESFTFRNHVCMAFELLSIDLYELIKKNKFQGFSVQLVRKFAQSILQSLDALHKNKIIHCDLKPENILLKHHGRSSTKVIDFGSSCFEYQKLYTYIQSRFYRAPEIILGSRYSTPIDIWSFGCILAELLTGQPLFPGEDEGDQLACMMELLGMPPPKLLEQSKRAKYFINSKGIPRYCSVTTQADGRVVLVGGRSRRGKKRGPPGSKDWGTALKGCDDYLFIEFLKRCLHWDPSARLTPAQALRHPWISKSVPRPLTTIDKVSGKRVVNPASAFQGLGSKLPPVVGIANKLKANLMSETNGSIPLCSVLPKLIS
Description: as §1

[4] = biological target: T4, STK17A (Homo sapiens, UniProt Q9UEE5)
T4 construct: purchased Reaction Biology Europe GmbH (formerly ProQinase)
T4 sequence (Q9UEE5 1-414): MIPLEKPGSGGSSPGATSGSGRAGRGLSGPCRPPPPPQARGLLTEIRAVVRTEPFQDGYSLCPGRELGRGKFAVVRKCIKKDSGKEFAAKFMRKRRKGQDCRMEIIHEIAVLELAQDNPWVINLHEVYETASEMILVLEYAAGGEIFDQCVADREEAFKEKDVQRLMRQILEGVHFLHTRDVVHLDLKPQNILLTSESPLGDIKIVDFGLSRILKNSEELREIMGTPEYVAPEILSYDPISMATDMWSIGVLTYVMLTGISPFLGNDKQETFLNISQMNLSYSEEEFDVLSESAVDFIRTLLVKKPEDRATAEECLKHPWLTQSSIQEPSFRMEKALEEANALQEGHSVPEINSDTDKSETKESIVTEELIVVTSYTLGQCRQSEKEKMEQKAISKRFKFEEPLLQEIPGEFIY
Description: as §1

[5] = biological target: T5, MUSK (Homo sapiens, UniProt O15146)
T5 construct: purchased Reaction Biology Europe GmbH (formerly ProQinase)
T5 sequence (O15146 24-869): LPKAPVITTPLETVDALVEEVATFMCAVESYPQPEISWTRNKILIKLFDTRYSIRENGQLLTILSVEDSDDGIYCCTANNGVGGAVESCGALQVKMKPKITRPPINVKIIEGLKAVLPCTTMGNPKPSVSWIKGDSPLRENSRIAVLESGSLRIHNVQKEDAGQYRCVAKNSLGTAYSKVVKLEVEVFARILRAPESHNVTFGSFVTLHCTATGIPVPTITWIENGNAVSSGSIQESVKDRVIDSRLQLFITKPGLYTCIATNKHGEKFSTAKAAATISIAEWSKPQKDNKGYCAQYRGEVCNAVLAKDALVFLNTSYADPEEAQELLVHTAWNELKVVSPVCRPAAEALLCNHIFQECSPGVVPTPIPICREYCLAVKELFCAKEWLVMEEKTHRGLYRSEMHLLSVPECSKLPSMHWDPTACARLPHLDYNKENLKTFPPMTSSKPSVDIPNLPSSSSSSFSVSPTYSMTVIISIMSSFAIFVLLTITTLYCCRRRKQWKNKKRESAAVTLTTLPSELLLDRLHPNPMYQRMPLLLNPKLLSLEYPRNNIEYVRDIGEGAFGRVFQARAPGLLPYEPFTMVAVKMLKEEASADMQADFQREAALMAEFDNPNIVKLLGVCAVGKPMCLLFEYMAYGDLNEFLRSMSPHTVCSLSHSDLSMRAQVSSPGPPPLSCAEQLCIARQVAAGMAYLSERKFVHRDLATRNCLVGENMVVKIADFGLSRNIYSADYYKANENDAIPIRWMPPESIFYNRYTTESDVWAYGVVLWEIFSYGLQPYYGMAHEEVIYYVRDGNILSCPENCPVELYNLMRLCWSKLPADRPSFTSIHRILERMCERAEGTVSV
Description: as §1

[6] = biological target: T6, DYRK1B (Homo sapiens, UniProt Q9Y463)
T6 construct: purchased Reaction Biology Europe GmbH (formerly ProQinase)
T6 sequence (Q9Y463 whole entry): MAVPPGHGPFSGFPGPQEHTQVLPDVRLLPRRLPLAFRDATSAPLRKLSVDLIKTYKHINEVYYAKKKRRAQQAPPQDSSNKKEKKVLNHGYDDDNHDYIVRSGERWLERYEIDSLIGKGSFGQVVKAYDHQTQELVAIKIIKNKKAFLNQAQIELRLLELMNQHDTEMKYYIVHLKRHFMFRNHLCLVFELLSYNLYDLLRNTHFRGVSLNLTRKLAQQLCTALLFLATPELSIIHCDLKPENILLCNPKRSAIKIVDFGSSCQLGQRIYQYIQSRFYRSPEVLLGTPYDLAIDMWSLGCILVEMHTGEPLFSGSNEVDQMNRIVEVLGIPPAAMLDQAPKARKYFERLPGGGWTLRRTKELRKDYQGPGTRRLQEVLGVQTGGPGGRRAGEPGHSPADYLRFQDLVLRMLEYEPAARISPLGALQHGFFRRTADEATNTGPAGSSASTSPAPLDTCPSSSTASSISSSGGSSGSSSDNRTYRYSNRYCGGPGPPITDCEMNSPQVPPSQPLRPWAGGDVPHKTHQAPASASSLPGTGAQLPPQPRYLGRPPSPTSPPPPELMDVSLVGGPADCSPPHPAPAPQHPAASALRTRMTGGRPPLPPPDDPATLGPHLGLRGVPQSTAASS
Description: as §1

[7] = biological target: T7, EPHA7 (Homo sapiens, UniProt Q15375)
T7 construct: purchased Reaction Biology Europe GmbH (formerly ProQinase)
T7 sequence (Q15375 28-998): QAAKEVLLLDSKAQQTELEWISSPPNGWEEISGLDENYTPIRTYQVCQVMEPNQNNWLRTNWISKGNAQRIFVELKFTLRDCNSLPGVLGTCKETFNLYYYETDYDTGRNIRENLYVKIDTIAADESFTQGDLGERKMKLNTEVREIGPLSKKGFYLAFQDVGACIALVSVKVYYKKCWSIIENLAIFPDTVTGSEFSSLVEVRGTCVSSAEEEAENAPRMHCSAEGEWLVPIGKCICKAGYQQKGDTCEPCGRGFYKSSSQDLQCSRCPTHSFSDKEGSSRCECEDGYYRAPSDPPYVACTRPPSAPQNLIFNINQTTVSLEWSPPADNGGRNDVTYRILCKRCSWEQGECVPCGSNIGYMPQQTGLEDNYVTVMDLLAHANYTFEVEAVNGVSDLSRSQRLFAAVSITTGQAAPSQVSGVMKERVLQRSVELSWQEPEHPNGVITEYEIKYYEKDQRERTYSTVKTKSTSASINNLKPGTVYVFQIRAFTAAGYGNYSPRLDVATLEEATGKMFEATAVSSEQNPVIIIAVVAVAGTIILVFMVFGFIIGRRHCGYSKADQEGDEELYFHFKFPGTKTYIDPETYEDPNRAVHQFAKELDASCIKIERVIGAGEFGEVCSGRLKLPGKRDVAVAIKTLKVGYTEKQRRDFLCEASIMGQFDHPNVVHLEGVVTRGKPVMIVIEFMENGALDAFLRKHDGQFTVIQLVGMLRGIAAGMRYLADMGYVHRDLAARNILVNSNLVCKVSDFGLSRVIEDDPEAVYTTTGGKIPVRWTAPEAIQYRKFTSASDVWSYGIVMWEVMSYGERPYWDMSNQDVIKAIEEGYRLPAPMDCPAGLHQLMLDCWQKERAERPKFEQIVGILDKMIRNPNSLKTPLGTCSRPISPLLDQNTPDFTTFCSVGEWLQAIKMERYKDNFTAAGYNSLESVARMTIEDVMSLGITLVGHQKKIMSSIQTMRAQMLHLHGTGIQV
Description: as §1

[8] = biological target: T8, TTBK1 (Homo sapiens, UniProt Q5TCY1)
T8 construct: purchased Reaction Biology Europe GmbH (formerly ProQinase)
T8 sequence (Q5TCY1 whole entry): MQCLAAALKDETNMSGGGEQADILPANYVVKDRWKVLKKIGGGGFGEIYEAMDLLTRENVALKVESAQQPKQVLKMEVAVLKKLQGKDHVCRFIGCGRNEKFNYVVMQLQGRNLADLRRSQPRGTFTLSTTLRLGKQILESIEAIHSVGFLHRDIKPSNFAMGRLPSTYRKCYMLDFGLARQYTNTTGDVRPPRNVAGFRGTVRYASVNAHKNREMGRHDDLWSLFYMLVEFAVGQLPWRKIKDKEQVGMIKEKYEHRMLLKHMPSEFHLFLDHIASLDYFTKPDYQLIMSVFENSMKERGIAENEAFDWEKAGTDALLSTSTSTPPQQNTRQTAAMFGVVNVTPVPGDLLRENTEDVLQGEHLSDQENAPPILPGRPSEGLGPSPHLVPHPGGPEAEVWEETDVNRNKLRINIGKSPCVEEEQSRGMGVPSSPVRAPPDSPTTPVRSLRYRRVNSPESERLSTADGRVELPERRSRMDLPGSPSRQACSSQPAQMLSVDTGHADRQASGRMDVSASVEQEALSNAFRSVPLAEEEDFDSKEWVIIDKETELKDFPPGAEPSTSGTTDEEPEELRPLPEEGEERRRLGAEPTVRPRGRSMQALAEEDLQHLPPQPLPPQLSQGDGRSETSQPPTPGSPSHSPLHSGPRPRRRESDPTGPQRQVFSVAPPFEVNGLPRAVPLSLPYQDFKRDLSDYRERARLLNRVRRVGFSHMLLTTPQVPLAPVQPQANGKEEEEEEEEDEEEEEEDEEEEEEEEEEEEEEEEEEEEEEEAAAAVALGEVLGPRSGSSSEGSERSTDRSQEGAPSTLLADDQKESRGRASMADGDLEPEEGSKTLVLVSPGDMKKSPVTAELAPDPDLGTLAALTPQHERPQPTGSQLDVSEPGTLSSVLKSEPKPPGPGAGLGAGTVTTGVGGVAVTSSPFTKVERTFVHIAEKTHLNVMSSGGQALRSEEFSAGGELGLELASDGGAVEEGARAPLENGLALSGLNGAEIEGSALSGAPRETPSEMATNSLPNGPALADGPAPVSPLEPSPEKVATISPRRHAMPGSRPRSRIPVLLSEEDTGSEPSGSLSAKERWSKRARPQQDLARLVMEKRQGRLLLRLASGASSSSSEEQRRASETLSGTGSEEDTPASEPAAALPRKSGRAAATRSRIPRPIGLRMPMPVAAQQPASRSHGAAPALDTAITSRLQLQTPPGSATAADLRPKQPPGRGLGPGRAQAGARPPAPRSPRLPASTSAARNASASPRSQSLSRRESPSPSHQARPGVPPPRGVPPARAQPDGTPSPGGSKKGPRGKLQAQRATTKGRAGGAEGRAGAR
Description: as §1

[9] = biological target: T9, CDK2/CycE1 (Homo sapiens, UniProt P24941)
T9 construct: purchased Reaction Biology Europe GmbH (formerly ProQinase)
Description: as §1

T1 sequence (P23443 whole entry): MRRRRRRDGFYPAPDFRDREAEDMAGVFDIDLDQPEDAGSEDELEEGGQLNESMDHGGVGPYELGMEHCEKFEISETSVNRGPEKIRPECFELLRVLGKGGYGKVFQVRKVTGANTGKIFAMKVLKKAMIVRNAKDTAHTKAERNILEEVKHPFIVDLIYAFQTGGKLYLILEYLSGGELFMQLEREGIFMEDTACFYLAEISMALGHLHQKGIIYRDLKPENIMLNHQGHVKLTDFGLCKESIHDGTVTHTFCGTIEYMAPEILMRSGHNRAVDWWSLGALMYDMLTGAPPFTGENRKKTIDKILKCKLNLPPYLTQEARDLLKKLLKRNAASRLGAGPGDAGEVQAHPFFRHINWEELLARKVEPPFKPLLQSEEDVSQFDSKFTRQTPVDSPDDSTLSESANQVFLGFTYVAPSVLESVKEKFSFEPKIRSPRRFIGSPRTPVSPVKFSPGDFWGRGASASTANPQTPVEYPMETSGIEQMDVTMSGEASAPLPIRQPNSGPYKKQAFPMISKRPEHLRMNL

## COc1ccnc2[nH]cc(-c3cc(N)nc(N)c3)c12 [meriolin 16]
[1]; 0.03 µM
  residual kinase activity: 99 % of control
[1]; 0.3 µM
  residual kinase activity: 84 % of control
[2]; 0.03 µM
  residual kinase activity: 94 % of control
[2]; 0.3 µM
  residual kinase activity: 84 % of control
[3]; 0.03 µM
  residual kinase activity: 27 % of control
[3]; 0.3 µM
  residual kinase activity: 2 % of control
[4]; 0.03 µM
  residual kinase activity: 83 % of control
[4]; 0.3 µM
  residual kinase activity: 23 % of control
[5]; 0.03 µM
  residual kinase activity: 88 % of control
[5]; 0.3 µM
  residual kinase activity: 70 % of control
[6]; 0.03 µM
  residual kinase activity: 8 % of control
[6]; 0.3 µM
  residual kinase activity: 0 % of control
[7]; 0.03 µM
  residual kinase activity: 122 % of control
[7]; 0.3 µM
  residual kinase activity: 107 % of control
[8]; 0.03 µM
  residual kinase activity: 116 % of control
[8]; 0.3 µM
  residual kinase activity: 108 % of control
[9]; 0.03 µM
  residual kinase activity: 16 % of control
[9]; 0.3 µM
  residual kinase activity: 0 % of control

## c1ccc(CNc2cc(-c3c[nH]c4ncccc34)ccn2)cc1 [meriolin 36]
[1]; 0.3 µM
  residual kinase activity: 82 % of control
[1]; 3 µM
  residual kinase activity: 37 % of control
[2]; 0.3 µM
  residual kinase activity: 81 % of control
[2]; 3 µM
  residual kinase activity: 27 % of control
[3]; 0.3 µM
  residual kinase activity: 59 % of control
[3]; 3 µM
  residual kinase activity: 14 % of control
[4]; 0.3 µM
  residual kinase activity: 23 % of control
[4]; 3 µM
  residual kinase activity: 4 % of control
[5]; 0.3 µM
  residual kinase activity: 28 % of control
[5]; 3 µM
  residual kinase activity: 5 % of control
[6]; 0.3 µM
  residual kinase activity: 7 % of control
[6]; 3 µM
  residual kinase activity: 0 % of control
[7]; 0.3 µM
  residual kinase activity: 131 % of control
[7]; 3 µM
  residual kinase activity: 93 % of control
[8]; 0.3 µM
  residual kinase activity: 101 % of control
[8]; 3 µM
  residual kinase activity: 77 % of control
[9]; 0.3 µM
  residual kinase activity: 1 % of control
[9]; 3 µM
  residual kinase activity: 1 % of control
